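All cell lines were grown in 96-well plates and treated with compound for 48 hours. At the GI50, growth is halved.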 Activity calls are given as the source filed them. Cut-off read from the data, not from the text of the source: active = GI50 up to about 1.1 µM and inactive = higher.
Tests used:
Experiment in all cases: NCI-60 cell line screen, 48 h
A498 = system: A498
ACHN = system: ACHN
HT-29 = system: HT-29
Hs-578T = system: Hs-578T
NCI-H226 = system: NCI-H226
OVCAR-4 = system: OVCAR-4
RXF 393 = system: RXF 393
SNB-75 = system: SNB-75
SR = system: SR
SW-620 = system: SW-620
T47D = system: T47D
TK-10 = system: TK-10
UO-31 = system: UO-31
HL-60 = system: HL-60
HOP-62 = system: HOP-62
NCI-H460 = system: NCI-H460
OVCAR-3 = system: OVCAR-3
SK-MEL-5 = system: SK-MEL-5
PC-3 = system: PC-3

How did the GI50 (A498) turn out when COc1ccc2c(c1)CCN1CCc3cc(OC)c(OC)cc3CC21 (configuration not stated) was run?
The GI50 was > 100 µM (inactive).

And the GI50 (ACHN)?
Its GI50 is > 100 µM (inactive).

And the GI50 (HT-29)?
Its GI50 is 35 µM (inactive).

And the GI50 (Hs-578T)?
Its GI50 is 89.5 µM (inactive).

And the GI50 (NCI-H226)?
Its GI50 is > 100 µM (inactive).

What about the GI50 (OVCAR-4) of the same molecule?
Its GI50 is > 100 µM (inactive).

And the GI50 (RXF 393)?
The GI50 was 69 µM (inactive).

And the GI50 (SNB-75)?
The GI50 was 66.7 µM (inactive).

And the GI50 (SR)?
The GI50 was 39.8 µM (inactive).

And the GI50 (SW-620)?
Its GI50 is 80.5 µM (inactive).

What about the GI50 (T47D) of the same molecule?
The GI50 was 73.3 µM (inactive).

What about the GI50 (TK-10) of the same molecule?
The GI50 was > 100 µM (inactive).

What about the GI50 (UO-31) of the same molecule?
Its GI50 is 31.8 µM (inactive).

How did the GI50 (A498) turn out when Cc1cc(NCCCCCCCCNc2cc(C)nc3cc(N(C)C)ccc23)c2ccc(N(C)C)cc2n1 was run?
The GI50 was 17.5 µM (inactive).

What about the GI50 (ACHN) of the same molecule?
Its GI50 is 12.3 µM (inactive).

What about the GI50 (HL-60) of the same molecule?
Its GI50 is 0.711 µM (active).

What about the GI50 (HOP-62) of the same molecule?
The GI50 was 12.2 µM (inactive).

What about the GI50 (NCI-H460) of the same molecule?
Its GI50 is 3.01 µM (inactive).

What about the GI50 (OVCAR-3) of the same molecule?
Its GI50 is 3.86 µM (inactive).

What about the GI50 (OVCAR-4) of the same molecule?
The GI50 was 4.88 µM (inactive).

What about the GI50 (RXF 393) of the same molecule?
Its GI50 is 12.9 µM (inactive).

And the GI50 (SR)?
Its GI50 is 2.82 µM (inactive).

And the GI50 (SW-620)?
The GI50 was 6.81 µM (inactive).

And the GI50 (TK-10)?
Its GI50 is > 10 µM (inactive).

What about the GI50 (UO-31) of the same molecule?
Its GI50 is 75.5 µM (inactive).

With COc1cc2c(cc1OC(=O)CC(C)O)C1C(OC2=O)C(OC(C)=O)C=C2CCN(C)[C@H]21 (some centres not stated) as the molecule, how does the GI50 (A498) read?
Its GI50 is 17.2 µM (inactive).

And the GI50 (ACHN)?
Its GI50 is 18 µM (inactive).

And the GI50 (HOP-62)?
Its GI50 is 21.1 µM (inactive).

And the GI50 (HT-29)?
Its GI50 is > 100 µM (inactive).

And the GI50 (NCI-H226)?
Its GI50 is 27.5 µM (inactive).

What about the GI50 (NCI-H460) of the same molecule?
Its GI50 is > 100 µM (inactive).

And the GI50 (OVCAR-3)?
The GI50 was 38.4 µM (inactive).

And the GI50 (OVCAR-4)?
The GI50 was 40.5 µM (inactive).

What about the GI50 (SK-MEL-5) of the same molecule?
The GI50 was 38.1 µM (inactive).

And the GI50 (SNB-75)?
Its GI50 is 16.1 µM (inactive).

And the GI50 (SR)?
The GI50 was 74.5 µM (inactive).

And the GI50 (SW-620)?
Its GI50 is > 100 µM (inactive).

What about the GI50 (TK-10) of the same molecule?
Its GI50 is 26.3 µM (inactive).

And the GI50 (UO-31)?
The GI50 was 47 µM (inactive).

Which GI50 (A498) does the source give for CCCCCCCCCCCCCCCCCCCCCC(=O)Nc1ccn(C2OC(CO)C(O)C2O)c(=O)n1 (configuration not stated) here?
The GI50 was 34.2 µM (inactive).

And the GI50 (ACHN)?
The GI50 was 5.2 µM (inactive).

And the GI50 (HL-60)?
The GI50 was 10 µM (inactive).

And the GI50 (HOP-62)?
Its GI50 is 3.11 µM (inactive).

What about the GI50 (HT-29) of the same molecule?
The GI50 was > 100 µM (inactive).

And the GI50 (NCI-H226)?
The GI50 was > 100 µM (inactive).

And the GI50 (NCI-H460)?
The GI50 was 2.32 µM (inactive).

And the GI50 (OVCAR-3)?
The GI50 was > 100 µM (inactive).

What about the GI50 (OVCAR-4) of the same molecule?
The GI50 was > 100 µM (inactive).

And the GI50 (RXF 393)?
Its GI50 is > 100 µM (inactive).

What about the GI50 (SK-MEL-5) of the same molecule?
The GI50 was 29 µM (inactive).

What about the GI50 (SNB-75) of the same molecule?
Its GI50 is > 83.6 µM (inactive).

And the GI50 (SR)?
The GI50 was 1.67 µM (inactive).

What about the GI50 (SW-620) of the same molecule?
The GI50 was > 57.4 µM (inactive).

What about the GI50 (TK-10) of the same molecule?
The GI50 was > 100 µM (inactive).

And the GI50 (UO-31)?
Its GI50 is 32.1 µM (inactive).

Which results are given for O=C1CCCC2COc3ccc(O)c1c32 (configuration not stated)?
GI50 (A498): > 100 µM (inactive); GI50 (ACHN): > 100 µM (inactive); GI50 (HL-60): > 100 µM (inactive); GI50 (HOP-62): > 100 µM (inactive); GI50 (HT-29): > 100 µM (inactive); GI50 (NCI-H226): > 100 µM (inactive); GI50 (NCI-H460): > 100 µM (inactive); GI50 (OVCAR-3): > 100 µM (inactive); GI50 (OVCAR-4): > 100 µM (inactive); GI50 (RXF 393): > 100 µM (inactive); GI50 (SK-MEL-5): > 100 µM (inactive); GI50 (SNB-75): > 100 µM (inactive); GI50 (SR): > 100 µM (inactive); GI50 (TK-10): > 100 µM (inactive); GI50 (UO-31): > 100 µM (inactive)

Which results are given for Clc1cccc2c1OCC1C(c3ccccc3)=NN(c3ccccc3)C21 (configuration not stated)?
GI50 (A498): > 100 µM (inactive); GI50 (ACHN): 55.5 µM (inactive); GI50 (HL-60): 31.8 µM (inactive); GI50 (HOP-62): > 100 µM (inactive); GI50 (HT-29): 83.9 µM (inactive); GI50 (NCI-H460): 59.4 µM (inactive); GI50 (OVCAR-3): > 100 µM (inactive); GI50 (RXF 393): > 100 µM (inactive); GI50 (SK-MEL-5): 23.8 µM (inactive); GI50 (SNB-75): > 100 µM (inactive); GI50 (SW-620): > 100 µM (inactive); GI50 (TK-10): > 100 µM (inactive); GI50 (UO-31): 60.8 µM (inactive)

How did the GI50 (A498) turn out when COc1cc(C2C3=C(NC(=O)C2C#N)c2ccc4ccccc4c2OCC3)cc(OC)c1OC (configuration not stated) was run?
Its GI50 is 12.4 µM (inactive).

What about the GI50 (ACHN) of the same molecule?
The GI50 was 16.6 µM (inactive).

And the GI50 (HL-60)?
Its GI50 is 27 µM (inactive).

And the GI50 (HOP-62)?
Its GI50 is 20 µM (inactive).

What about the GI50 (HT-29) of the same molecule?
Its GI50 is 33 µM (inactive).

What about the GI50 (Hs-578T) of the same molecule?
The GI50 was 20.9 µM (inactive).

What about the GI50 (NCI-H460) of the same molecule?
The GI50 was 25.9 µM (inactive).

And the GI50 (OVCAR-3)?
Its GI50 is 45 µM (inactive).

And the GI50 (OVCAR-4)?
Its GI50 is 48 µM (inactive).

What about the GI50 (PC-3) of the same molecule?
Its GI50 is 49.3 µM (inactive).

What about the GI50 (RXF 393) of the same molecule?
The GI50 was 14.4 µM (inactive).

And the GI50 (SK-MEL-5)?
Its GI50 is 28.2 µM (inactive).

What about the GI50 (SNB-75) of the same molecule?
Its GI50 is 16.2 µM (inactive).

And the GI50 (SW-620)?
Its GI50 is 78.7 µM (inactive).

And the GI50 (T47D)?
The GI50 was 12.2 µM (inactive).

What about the GI50 (TK-10) of the same molecule?
Its GI50 is > 100 µM (inactive).

And the GI50 (UO-31)?
Its GI50 is 15.1 µM (inactive).

For C[N+](C)(C)CC(CC(=O)[O-])C1CC1 (configuration not stated), which GI50 (A498) is on record?
Its GI50 is > 100 µM (inactive).

What about the GI50 (ACHN) of the same molecule?
Its GI50 is > 100 µM (inactive).

And the GI50 (HL-60)?
Its GI50 is > 100 µM (inactive).

What about the GI50 (HOP-62) of the same molecule?
Its GI50 is > 100 µM (inactive).

What about the GI50 (HT-29) of the same molecule?
The GI50 was > 100 µM (inactive).

What about the GI50 (NCI-H460) of the same molecule?
The GI50 was > 100 µM (inactive).

And the GI50 (OVCAR-3)?
The GI50 was > 100 µM (inactive).

And the GI50 (OVCAR-4)?
Its GI50 is > 100 µM (inactive).

And the GI50 (RXF 393)?
Its GI50 is > 100 µM (inactive).

And the GI50 (SK-MEL-5)?
Its GI50 is > 100 µM (inactive).

What about the GI50 (SNB-75) of the same molecule?
Its GI50 is > 100 µM (inactive).

And the GI50 (SW-620)?
The GI50 was > 100 µM (inactive).

And the GI50 (TK-10)?
Its GI50 is > 100 µM (inactive).

And the GI50 (UO-31)?
Its GI50 is > 100 µM (inactive).

Which results are given for O=C(Cc1nc2c3c(ccc2nc1O)C(=O)c1ccccc1C3=O)C(=O)Nc1ccccc1[N+](=O)[O-]?
GI50 (ACHN): 15.7 µM (inactive); GI50 (HL-60): 14.5 µM (inactive); GI50 (HOP-62): 18.3 µM (inactive); GI50 (HT-29): 19.5 µM (inactive); GI50 (NCI-H226): 20.6 µM (inactive); GI50 (NCI-H460): 31.9 µM (inactive); GI50 (OVCAR-3): 11.5 µM (inactive); GI50 (OVCAR-4): 13.2 µM (inactive); GI50 (SK-MEL-5): 18.3 µM (inactive); GI50 (SR): 11.7 µM (inactive); GI50 (SW-620): 12.3 µM (inactive); GI50 (TK-10): 24.2 µM (inactive); GI50 (UO-31): 27.5 µM (inactive)

From ChEMBL document CHEMBL1201862, “PubChem BioAssay data set” (2004)
